Assay results published in ChEMBL document CHEMBL2346619, “Cardioprotective potential of N,α-L-rhamnopyranosyl vincosamide, an indole alkaloid, isolated from the leaves of Moringa oleifera in isoproterenol induced cardiotoxic rats: in vivo and in vitro studies” (Bioorg Med Chem Lett, 2013).
In brackets after ≈: the same amount, converted by molar mass.

Legend:
Rattus norvegicus [1] = assay: Effect on Wister albino rat SGPT level in serum at 40 mg/kg, po for 7 days (reference value: 30.25 +/- 3.17 U/L); type: ADME, organism-based; design: dose 40 mg/kg, route oral; settings: in vivo, 168 h
Rattus norvegicus [2] = assay: Effect on Wister albino rat tissue degradation at 40 mg/kg, po by light microscopy (reference value: 0%); type: ADME, organism-based; design: dose 40 mg/kg, route oral; settings: in vivo
Rattus norvegicus [3] = assay: Cardioprotective effect in isoproterenol-induced Wister albino rats assessed as inhibition of heart rate at 40 mg/kg, po for 7 days by Electrocardiographic assay (reference value: 430 +/- 5.16 beats/mins); type: functional
Rattus norvegicus [4] = assay: Cardioprotective effect in isoproterenol-induced Wister albino rats assessed as cTnT level in serum at 40 mg/kg, po for 7 days (reference value: 1.99 +/- 0.06 ng/ml); type: functional
Rattus norvegicus [5] = assay: Effect on Wister albino rat CK-MB level in serum at 40 mg/kg, po for 7 days (reference value: 84.68 +/- 3.67 IU/L); type: ADME, organism-based; design: dose 40 mg/kg, route oral; settings: in vivo, 168 h
Rattus norvegicus [6] = assay: Effect on Wister albino rat inflammatory cells at 40 mg/kg, po by light microscopy (reference value: 0%); type: ADME, organism-based; design: dose 40 mg/kg, route oral; settings: in vivo
Rattus norvegicus [7] = assay: Cardioprotective effect in isoproterenol-induced Wister albino rats assessed as MDA level in serum per mg protein at 40 mg/kg, po for 7 days (reference value: 2.76 +/- 0.39 nmol/h/mg of protein); type: functional
Rattus norvegicus [8] = assay: Effect on Wister albino rat LDH level in serum at 40 mg/kg, po for 7 days (reference value: 29.64 +/- 6.71 IU/L); type: ADME, organism-based; design: dose 40 mg/kg, route oral; settings: in vivo, 168 h
Rattus norvegicus [9] = assay: Cardioprotective effect in isoproterenol-induced Wister albino rats assessed as CK-MB level in serum at 40 mg/kg, po for 7 days (reference value: 146.56 +/- 7.14 IU/L); type: functional
[10] = system: Radical scavenging activity; assay: Antioxidant activity assessed as DPPH radical scavenging activity; type: functional
Rattus norvegicus [11] = assay: Cardioprotective effect in isoproterenol-induced Wister albino rats assessed as inhibition of ST-segment elevation at 40 mg/kg, po for 7 days by Electrocardiographic assay (reference value: 0.390 +/- 0.015 mV); type: functional
Rattus norvegicus [12] = assay: Cardioprotective effect in isoproterenol-induced Wister albino rats assessed as SGPT level in serum at 40 mg/kg, po for 7 days (reference value: 76.07 +/- 4.16 U/L); type: functional
[13] = Antioxidant activity assessed as nitric oxide scavenging activity; type: functional
Rattus norvegicus [14] = assay: Cardioprotective effect in isoproterenol-induced Wister albino rats assessed as LDH level in serum at 40 mg/kg, po for 7 days (reference value: 216.66 +/- 12.46 IU/L); type: functional
Rattus norvegicus [15] = assay: Effect on Wister albino rat LOOH level in serum per mg of protein at 40 mg/kg, po for 7 days (reference value: 2.90 +/- 0.74 noml/mg of protein); type: ADME, organism-based; design: dose 40 mg/kg, route oral; settings: in vivo, 168 h
Rattus norvegicus [16] = assay: Cardioprotective effect in isoproterenol-induced Wister albino rats assessed as inflammatory cells at 40 mg/kg, po for 7 days by light microscopy (reference value: 30.1%); type: functional
Rattus norvegicus [17] = assay: Effect on Wister albino rat MDA level in serum per mg of protein at 40 mg/kg, po for 7 days (reference value: 0.67 +/- 0.03 nmol/h/mg of protein); type: ADME, organism-based; design: dose 40 mg/kg, route oral; settings: in vivo, 168 h
[18] = Antioxidant activity assessed as super oxide scavenging activity; type: functional
[19] = Antioxidant activity assessed as hydroxy radical scavenging activity; type: functional
Rattus norvegicus [20] = assay: Effect on Wister albino rat ST-segment elevation at 40 mg/kg, po by Electrocardiographic assay (reference value: 0.157 +/- 0.003 mV); type: ADME, organism-based; design: dose 40 mg/kg, route oral; settings: in vivo
Rattus norvegicus [21] = assay: Cardioprotective effect in isoproterenol-induced Wister albino rats assessed as tissue viability with less necrotic tissue at 40 mg/kg, po for 7 days by light microscopy (reference value: 52%); type: functional
[22] = Antioxidant activity assessed as ABTS radical scavenging activity; type: functional
Rattus norvegicus [23] = assay: Cardioprotective effect in isoproterenol-induced Wister albino rats assessed as LOOH level in serum per mg protein at 40 mg/kg, po for 7 days (reference value: 7.67 +/- 1.07 noml/mg of protein); type: functional
Rattus norvegicus [24] = assay: Effect on Wister albino rat heart rate elevation at 40 mg/kg, po by Electrocardiographic assay (reference value: 265 +/- 3.71 beats/mins); type: ADME, organism-based; design: dose 40 mg/kg, route oral; settings: in vivo
Rattus norvegicus [25] = assay: Cardioprotective effect in isoproterenol-induced Wister albino rats assessed as tissue degradation at 40 mg/kg, po for 7 days by light microscopy (reference value: 55.15%); type: functional
Rattus norvegicus [26] = assay: Effect on Wister albino rat cTnT level in serum at 40 mg/kg, po for 7 days (reference value: 0.66 +/- 0.02 ng/ml); type: ADME, organism-based; design: dose 40 mg/kg, route oral; settings: in vivo, 168 h

`C=C[C@H]1[C@H](O[C@@H]2O[C@H](CO)[C@@H](O)[C@H](O)[C@H]2O)OC=C2C(=O)N3CCc4c(n(O[C@@H]5O[C@@H](C)[C@H](O)[C@@H](O)[C@H]5O)c5ccccc45)[C@H]3C[C@H]21` gave an Activity (Rattus norvegicus [1]) of 22.11 U/L, an Activity (Rattus norvegicus [2]) of 0% and an Activity (Rattus norvegicus [3]) of 260 bpm. It also gave an Activity (Rattus norvegicus [4]) of 0.67 ng/mL, an Activity (Rattus norvegicus [5]) of 82.12 IU/L and an Activity (Rattus norvegicus [6]) of 0%. It also gave an Activity (Rattus norvegicus [7]) of 0.99 nmol/h/mg protein, an Activity (Rattus norvegicus [8]) of 117.34 IU/L and an Activity (Rattus norvegicus [9]) of 92.01 IU/L. The IC50 [10] was 37.76 µg/mL (≈ 57.2 µM), the Activity (Rattus norvegicus [11]) was 0.22 mV and the Activity (Rattus norvegicus [12]) was 58.92 U/L. It also gave an IC50 [13] of 7.16 µg/mL (≈ 10.8 µM), an Activity (Rattus norvegicus [14]) of 160.72 IU/L and an Activity (Rattus norvegicus [15]) of 2.62 nmol. For the same molecule, the Activity (Rattus norvegicus [16]) was 0%, the Activity (Rattus norvegicus [17]) was 0.79 nmol/h/mg protein and the IC50 [18] was 16.71 µg/mL (≈ 25.3 µM). The IC50 [19] was 4.95 µg/mL (≈ 7.49 µM), the Activity (Rattus norvegicus [20]) was 0.14 mV and the Activity (Rattus norvegicus [21]) was 20%. It also gave an IC50 [22] of 29.65 µg/mL (≈ 44.9 µM), an Activity (Rattus norvegicus [23]) of 4.1 nmol and an Activity (Rattus norvegicus [24]) of 270 bpm. It also gave an Activity (Rattus norvegicus [25]) of 0% and an Activity (Rattus norvegicus [26]) of 0.62 ng/mL.
